In series [1] the target is T1, fatty acid synthase (FASN) (Mus musculus, UniProt P19096).
T1 construct: The dorsal horn of the spinal cord tissue was homogenized in lysis buffer; from tissue; host or cells: dorsal horn of the spinal cord of female Balb-c mice (CCI model)
In words: Fatty acid synthase activity in the dorsal horn of the spinal cord of treated CCI-mice (NADPH oxidation, A340). The format is in vivo. The note with it: 50 mg/Kg, n = 5; for FASN activity, % of vehicle group: 14 dpi. The procedure: For dose response studies, EGCG and the two synthetic EGCG derivatives compound 23 and compound 30 were administered by intra-peritoneal injection at 10, 30, 50 and 100 mg/Kg (n = 5 mice/compound/dose), 30 minutes after the CCI. To analyze the time-dependent effect EGCG and the two synthetic EGCG derivatives compound 23 and compound 30 were administered by intra-peritoneal injection at 50 mg/Kg (n = 15 mice/compound), 30 minutes after the CCI. Another set of animals were used to study the effect of 50 mg/kg of EGCG and the two synthetic EGCG derivatives compound 23 and compound 30 at 14 dpi (n = 15 mice/compound). In all cases, the administration was daily repeated during the first week. All compounds were dissolved in DMSO/saline solution (1:9; v/v), used as vehicle group.
The fatty acid synthase (FASN) activity was assayed in particle-free supernatants by recording spectrophotometrically at 37°C (Lambda Bio 20, Perkin Elmer Boston, MA, USA, EUA) and measuring the decrease of A340 nm due to oxidation of NADPH as previously described. Briefly, mice (n = 5 per group) were sacrificed with sodium pentobarbital (90 mg/kg; i.p.) at 14 and 56 dpi. Spinal cord segments distal to T12 vertebra were quickly removed and snap frozen. The dorsal horn of the spinal cord tissue was homogenized in lysis buffer (250mM sucrose, 20 mM HEPES pH 7.6, 2 mM MgCl2, 1 mM DTT, 1 mM EDTA, 50 mM NaF, 2 mM phenylmethylsulfonyl fluoride (PMSF), 1 μg/μL aprotinin, 1 μg/μL leupeptin, 2 mM sodium orthovanadate). Homogenized samples were centrifuged at 3,500 x g for 10 minutes, and then supernatant was collected and centrifuged at 100,000 x g for 30 minutes to obtain supernatants particle-free. The protein concentrations were determined using the Dc protein assay kit. A 90 μg amount of protein was used for the reaction. A pre-incubation during 15 minutes at 37°C in 0.2 M of potassium phosphate buffer, pH = 7.0 was kept for temperature equilibration. Then, samples were added to the reaction mixture (200 mM potassium phosphate buffer, pH 7.0; 1 mM EDTA; 1 mM dithiothreitol, 30 μM Acetyl-CoA and 0.24 mM NADPH) and then were monitored at 340 nm for 3 minutes to measure background NADPH oxidation. After the addition of 50 μM of malonyl-CoA, the reaction was assayed for 10 minutes to determine FASN-dependent oxidation of NADPH. Rates were corrected with the background rate of NADPH oxidation.

In series [2] the test system is FASN. Kind of series: Western blot of FASN protein levels in the dorsal horn of the spinal cord. The format is in vivo, mice. The settings on record: 50 mg/Kg, 14 and 56 dpi. The procedure:
(§1) Mice (n = 5 per group) were sacrificed with sodium pentobarbital (90 mg/kg; i.p.) at 14 and 56 dpi and spinal cord segments distal to T12 vertebra were quickly removed and frozen. For total protein extraction, the dorsal horn of the spinal cord was homogenized in modified RIPA buffer (50 mM Tris–HCl pH 7.5, 1% Triton X-100, 0.5% sodium deoxycholate, 0.2% SDS, 100 mM NaCl, 1 mM EDTA, 2 mM PMSF, 1 μg/μL aprotinin, 1 μg/μL leupeptin and 2 mM sodium orthovanadate).
(§2) Western blotting was performed as previously described. The following primary antibodies were used: anti-FASN (1:1000, BD Bioscience, San Jose, CA); anti-TNF-α, anti-IL-1β, anti-IL-6 and anti-NFκB (all 1:500, Santa Cruz Biotechnology, Santa Cruz, CA); anti-phosphoNMDAR2B (Tyr1472) (1:2000, Affinity Bioreagents, Golden, CO) and anti-NMDAR2B (1:1000, Chemicon, Temecula, CA). Loading control was performed by reprobing the membranes with anti-actin (1:10,000; MP Biochemicals, Aurora, OH), anti-NeuN (1:1,000; Chemicon) or anti-N-cadherin (1:1000, BD Bioscience). Membranes were incubated with the corresponding horseradish peroxidase-conjugated antibody (1:2,000; Promega, Madison, WI). Immunoreactive bands were visualized using the Western Blotting Luminol Reagent and quantified by a computer-assisted densitometer (Gel-Pro Analyzer, version 4, Media Cybernetics).
A general note: Immunoblotting shows a protein as a band on a membrane.

The subject of the next series is NMDAR2B. Kind of series: Western blot of phospho-NMDAR2B and total NMDAR2B in the dorsal horn of the spinal cord. The class given is in vivo, mice. The settings on record: 50 mg/Kg, 56 dpi. The procedure:
as §1, §2

Series [3] is described as follows: Toxicity studies: body weight, food and fluid intake, histological examination. The format is in vivo, mice. The note with it: vs control animals (data not shown).
The subject of series [4] is FASN. Further details: method as in PMID 22559865. The settings on record: previously reported; cited from earlier work.
Details of series [5]: method as in PMID 22559865. The note with it: daily doses of 5, 25 or 40 mg/Kg; cited from earlier work.
Details of series [6]: method as in PMID 20008854, PMID 22559865, PMID 17902053. The settings on record: previously published toxicity studies; cited from earlier work.
The test system of the next series is TNF-α, IL-1β and IL-6. Kind of series: Western blot of cytokine protein levels in the dorsal horn of the spinal cord. The format is in vivo, mice. The settings on record: 50 mg/Kg, 14 dpi. As for the experimental part:
as §1, §2

Series [7] in a line: Hepatic, renal and hematological function serum markers in treated mice. The note with it: for Hematocrit / Hemoglobin / Lymphocytes / Monocytes / Neutrophils / platelet count: Balb/c; for ALP (alkaline phosphatase), hepatic function / ALT (alanine transaminase), hepatic function / AST (aspartate transaminase), hepatic function / BUN (urea), renal function / Creatinin, renal function: Balb/c serum. The format is in vivo, Balb/c.

Like-named read-outs stand apart in the source and are kept apart here.

Consider three compounds from PMC4391943, “Novel Epigallocatechin-3-Gallate (EGCG) Derivative as a New Therapeutic Strategy for Reducing Neuropathic Pain after Chronic Constriction Nerve Injury in Mice” (PLoS ONE, 2015).

T1 sequence (P19096 whole entry): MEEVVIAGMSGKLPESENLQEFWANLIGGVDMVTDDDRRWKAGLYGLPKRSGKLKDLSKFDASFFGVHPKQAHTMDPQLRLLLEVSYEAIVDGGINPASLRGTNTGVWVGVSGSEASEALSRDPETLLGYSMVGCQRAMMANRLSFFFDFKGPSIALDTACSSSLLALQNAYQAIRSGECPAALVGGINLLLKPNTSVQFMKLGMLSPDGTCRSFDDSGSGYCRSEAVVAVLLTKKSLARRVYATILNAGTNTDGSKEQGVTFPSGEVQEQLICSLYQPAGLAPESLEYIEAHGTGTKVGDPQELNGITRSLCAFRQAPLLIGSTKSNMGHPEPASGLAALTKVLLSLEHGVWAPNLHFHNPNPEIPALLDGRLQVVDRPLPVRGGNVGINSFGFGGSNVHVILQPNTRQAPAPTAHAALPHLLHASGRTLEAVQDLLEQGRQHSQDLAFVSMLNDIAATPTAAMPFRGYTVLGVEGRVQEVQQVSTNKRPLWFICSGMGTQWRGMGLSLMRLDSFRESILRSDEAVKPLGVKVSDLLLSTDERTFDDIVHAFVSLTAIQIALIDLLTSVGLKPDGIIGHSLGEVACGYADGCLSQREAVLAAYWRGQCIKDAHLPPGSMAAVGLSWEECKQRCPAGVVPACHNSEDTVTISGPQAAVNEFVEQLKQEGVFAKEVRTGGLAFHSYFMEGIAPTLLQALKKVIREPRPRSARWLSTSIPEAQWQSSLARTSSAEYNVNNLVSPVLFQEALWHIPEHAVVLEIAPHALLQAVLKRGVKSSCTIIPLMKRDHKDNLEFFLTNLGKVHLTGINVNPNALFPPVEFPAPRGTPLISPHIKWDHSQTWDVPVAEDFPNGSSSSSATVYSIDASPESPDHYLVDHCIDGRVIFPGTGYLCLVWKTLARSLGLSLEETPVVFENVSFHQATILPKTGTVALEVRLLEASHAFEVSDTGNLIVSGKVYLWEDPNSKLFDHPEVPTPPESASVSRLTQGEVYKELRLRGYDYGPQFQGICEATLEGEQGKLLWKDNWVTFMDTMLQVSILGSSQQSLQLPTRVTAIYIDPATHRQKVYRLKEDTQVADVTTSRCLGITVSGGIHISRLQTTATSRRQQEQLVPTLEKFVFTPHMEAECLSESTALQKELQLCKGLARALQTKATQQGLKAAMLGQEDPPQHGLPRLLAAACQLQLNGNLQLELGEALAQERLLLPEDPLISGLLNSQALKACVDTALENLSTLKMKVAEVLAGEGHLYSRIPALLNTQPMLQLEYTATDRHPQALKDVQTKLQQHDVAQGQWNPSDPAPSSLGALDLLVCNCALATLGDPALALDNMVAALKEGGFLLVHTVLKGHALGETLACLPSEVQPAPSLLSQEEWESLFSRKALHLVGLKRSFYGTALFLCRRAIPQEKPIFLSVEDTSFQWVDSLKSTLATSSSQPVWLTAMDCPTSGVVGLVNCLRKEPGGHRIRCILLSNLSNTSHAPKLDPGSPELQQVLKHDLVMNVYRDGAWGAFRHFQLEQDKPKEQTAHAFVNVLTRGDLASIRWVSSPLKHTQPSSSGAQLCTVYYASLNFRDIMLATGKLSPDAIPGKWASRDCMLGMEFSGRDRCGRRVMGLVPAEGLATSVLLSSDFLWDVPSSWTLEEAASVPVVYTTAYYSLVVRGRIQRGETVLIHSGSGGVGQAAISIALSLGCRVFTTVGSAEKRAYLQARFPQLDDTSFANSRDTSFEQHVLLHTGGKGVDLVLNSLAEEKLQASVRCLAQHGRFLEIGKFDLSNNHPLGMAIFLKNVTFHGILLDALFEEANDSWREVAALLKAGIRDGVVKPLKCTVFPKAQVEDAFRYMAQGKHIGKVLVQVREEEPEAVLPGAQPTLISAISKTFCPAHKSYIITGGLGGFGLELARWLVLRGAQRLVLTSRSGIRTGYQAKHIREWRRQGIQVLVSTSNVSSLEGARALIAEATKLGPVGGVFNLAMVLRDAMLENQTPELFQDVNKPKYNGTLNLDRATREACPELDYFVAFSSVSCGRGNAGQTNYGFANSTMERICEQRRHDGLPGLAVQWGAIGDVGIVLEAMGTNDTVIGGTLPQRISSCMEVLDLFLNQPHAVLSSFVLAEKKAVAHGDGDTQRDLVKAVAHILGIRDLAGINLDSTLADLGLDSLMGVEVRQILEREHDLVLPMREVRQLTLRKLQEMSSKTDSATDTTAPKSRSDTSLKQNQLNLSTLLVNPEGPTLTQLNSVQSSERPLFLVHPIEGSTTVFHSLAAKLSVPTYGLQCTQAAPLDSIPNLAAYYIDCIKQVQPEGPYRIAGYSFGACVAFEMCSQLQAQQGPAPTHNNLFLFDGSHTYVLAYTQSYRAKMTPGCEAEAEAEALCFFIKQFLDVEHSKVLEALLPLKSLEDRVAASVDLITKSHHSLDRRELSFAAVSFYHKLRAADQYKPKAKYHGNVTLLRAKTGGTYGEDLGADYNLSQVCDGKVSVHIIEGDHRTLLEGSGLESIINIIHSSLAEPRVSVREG

For `O=C(Oc1cccc2c(OC(=O)c3cc(O)c(O)c(O)c3)cccc12)c1cc(O)c(O)c(O)c1` [Compound 23, 1,5-Bis [(3,4,5-trihydroxybenzoyl)oxy] naphthalene], in series [1], the “FASN activity, % of vehicle group” value is “No differences”. In addition, the “effect on FASN protein levels” value with FASN [2] is reported as “no effect”. Moreover, the “phospho-levels of NMDAR2B compared to vehicle group” value in the series on NMDAR2B was “did not induce variations”. Moreover, the “histological examination of liver, heart, kidney lung and brain” value in series [3] was “no microscopic evidence of drug induces toxicity”. Also, the “% of FASN inhibition” value with FASN [4] is given as 30%. For the same compound, in series [5], the “hepatic, renal and hematological function serum markers vs control” value is recorded as “no significant alteration”. For the same compound, the “changes on body weight versus the control group” value in series [6] is “neither 23 nor 30 caused changes on body weight”.
`O=C(Oc1ccc(-c2ccc(OC(=O)c3cc(O)c(O)c(O)c3)cc2)cc1)c1cc(O)c(O)c(O)c1` [Compound 30, 4,4′-Bis [(3,4,5-trihydroxybenzoyl)oxy]-1,1′-biphenyl]: the “FASN activity, % of vehicle group” value in series [1] was 61±8 % of vehicle group. For the same compound, the “reduction of FASN activity” value in [1] (56 dpi) is 32±9 % of vehicle. Further, the “effect on FASN protein levels” value in the series with FASN [2] was “no effect”. Further, the “protein levels of TNF-α, IL-1β and IL-6 compared to vehicle group” value in the series with TNF-α, IL-1β and IL-6 is “reduced”. Further, in the series with NMDAR2B, the “phospho-levels of NMDAR2B compared to vehicle group” value is recorded as “specific decrease”. In series [7] (50 mg/Kg), this compound yielded a Hematocrit of 42.4 ± 2.2%, a Hemoglobin of 14.2 ± 0.8 g/dL, a Lymphocytes of 51.2 ± 13.9% and a Monocytes of 1.4 ± 0.1%. In series [7] (50 mg/Kg), the Neutrophils came to 32.0 ± 22.9%; the platelet count is 826 10^3/µL; the “ALP (alkaline phosphatase), hepatic function” value came to 97.2 ± 20.3 U/L; the “ALT (alanine transaminase), hepatic function” value is on record as 210.3 ± 28.2 U/L. In [7] (50 mg/Kg), the “AST (aspartate transaminase), hepatic function” value is reported as 266.5 + 80.3 U/L; the “BUN (urea), renal function” value turned out to be 21.9 ± 7.5 mg/dL; the “Creatinin, renal function” value came out at 0.30 ± 0.1 mg/dL. In series [7] (75 mg/Kg), this compound came in with a Hematocrit of 38.3 ± 2.8%, a Hemoglobin of 13.6 ± 0.3 g/dL, a Lymphocytes of 50.2 ± 7.5% and a Monocytes of 1.9 ± 1.4%. In [7] (75 mg/Kg), the Neutrophils stood at 30.7 ± 8.1%; the platelet count was 849 10^3/µL; the “ALP (alkaline phosphatase), hepatic function” value is listed as 86.5 ± 30.3 U/L; the “ALT (alanine transaminase), hepatic function” value was 290.2 + 31 U/L. In addition, in series [7] (75 mg/Kg), the “AST (aspartate transaminase), hepatic function” value was 320.3 + 45.5 U/L; the “BUN (urea), renal function” value is 21.1 ± 6.8 mg/dL; the “Creatinin, renal function” value was found to be 0.31 ± 0.1 mg/dL. Moreover, in series [7] (daily doses of 50 and 75 mg/Kg (S2 Table)), the “hepatic, renal and hematological function serum markers vs control” value is on record as “no significant alteration”. Further, the “histological examination of liver, heart, kidney lung and brain” value in [3] is reported as “no microscopic evidence of drug induces toxicity”. Besides, the “% of FASN inhibition” value in the series with FASN [4] is 90%. For the same compound, in [6], the “changes on body weight versus the control group” value is listed as “neither 23 nor 30 caused changes on body weight”.
Consider epigallocatechin-3-gallate [EGCG], for which the “FASN activity, % of vehicle group” value in series [1] is given as 57±8 % of vehicle group. Moreover, the “effect on FASN protein levels” value with FASN [2] is “no effect”. Moreover, the “protein levels of TNF-α, IL-1β and IL-6 compared to vehicle group” value in the series with TNF-α, IL-1β and IL-6 is “reduced”. Also, the “phospho-levels of NMDAR2B compared to vehicle group” value with NMDAR2B was “did not induce variations”.
